Article PMC8854719, “Phase 1A/1B dose-escalation and -expansion study to evaluate the safety, pharmacokinetics, food effects and antitumor activity of pamiparib in advanced solid tumours” (British Journal of Cancer, 2021)

Experiment: Safety and tolerability: adverse events, dose-limiting toxicities, MTD, RP2D (Phase 1A/1B)
Format: in vivo
Description: This was an open-label, Phase 1, dose-escalation/dose-expansion study, conducted across six study centres in Australia. The dose-escalation phase evaluated twice-daily (BID) and once-daily (QD) dosing, and the dose-expansion phase evaluated the BID RP2D from the dose-escalation phase and food effects (Fig. 1). The food-effects cohort comprised two sequences: fast followed by fed (sequence 1) and fed followed by fast (sequence 2). […] The decision to proceed to the next dose cohort was determined by the Safety Monitoring Committee and followed a modified 3 + 3 escalation scheme. […] When ≥2 DLTs occurred in the first 23 days of a dose level, the next lower dose level was declared the MTD. Safety was monitored and DLTs were assessed in all dose cohorts. […] The food-effects cohort investigated the effects of food on the PK of pamiparib in patients with advanced solid tumours.
The QD dosing regimen was added as an amendment to the protocol with the purpose of exploring the feasibility of a more convenient regimen.
Safety and tolerability were assessed throughout the study by monitoring adverse events (AEs), serious AEs, clinical laboratory measurements and physical examinations. Adverse events were categorised according to their severity (National Cancer Institute Common Terminology Criteria for Adverse Events v4.03) and relationship to the study treatment.

## C[C@]12CCCN1CC1=NNC(=O)c3cc(F)cc4[nH]c2c1c34 [pamiparib]
40 mg BID (n = 6)
  Treatment-emergent AE: Grade 3 or higher: 3 (50.0) n (%)
  Treatment-emergent AE: Leading to death: 0 (0.0) n (%)
  Treatment-emergent AE: Leading to dose interruption: 4 (66.7) n (%)
  Treatment-emergent AE: Leading to dose modification: 4 (66.7) n (%)
  Treatment-emergent AE: Leading to dose reduction: 0 (0.0) n (%)
  Treatment-emergent AE: Leading to treatment discontinuation: 1 (16.7) n (%)
  Treatment-emergent AE: Serious: 2 (33.3) n (%)
  Treatment-related AE: 6 (100.0) n (%)
  Treatment-related AE: Grade 3 or higher: 2 (33.3) n (%)
  Treatment-related AE: Leading to death: 0 (0.0) n (%)
  Treatment-related AE: Leading to dose interruption: 3 (50.0) n (%)
  Treatment-related AE: Leading to dose modification: 3 (50.0) n (%)
  Treatment-related AE: Leading to dose reduction: 0 (0.0) n (%)
  Treatment-related AE: Leading to treatment discontinuation: 0 (0.0) n (%)
  Treatment-related AE: Serious: 0 (0.0) n (%)
  Upper respiratory tract infection, AE of any grade: 1 (16.7) n (%)
  Urinary tract infection, AE of any grade: 0 (0.0) n (%)
  Vomiting, AE of any grade: 5 (83.3) n (%)
40 mg BID, n = 1
  Dose-limiting toxicities observed (description): Grade 2 nausea
60 mg BID
  Incidence of nausea: 54.5%
60 mg BID (n = 11)
  Abdominal pain, AE of any grade: 3 (27.3) n (%)
  Anaemia, AE of any grade: 4 (36.4) n (%)
  Ascites, AE of any grade: 0 (0.0) n (%)
  Back pain, AE of any grade: 1 (9.1) n (%)
  Constipation, AE of any grade: 1 (9.1) n (%)
  Cough, AE of any grade: 1 (9.1) n (%)
  Decreased appetite, AE of any grade: 1 (9.1) n (%)
  Diarrhoea, AE of any grade: 4 (36.4) n (%)
  Dose-limiting toxicity: 0 (0.0) n (%)
  Dyspnoea, AE of any grade: 1 (9.1) n (%)
  Fatigue, AE of any grade: 2 (18.2) n (%)
  Headache, AE of any grade: 0 (0.0) n (%)
  Hypoalbuminemia, AE of any grade: 2 (18.2) n (%)
  Hypomagnesemia, AE of any grade: 0 (0.0) n (%)
  Hypophosphatemia, AE of any grade: 1 (9.1) n (%)
  Increased AST, AE of any grade: 1 (9.1) n (%)
  Muscle spasms, AE of any grade: 1 (9.1) n (%)
  Nausea, AE of any grade: 6 (54.5) n (%)
  Neutropenia, AE of any grade: 0 (0.0) n (%)
  Non-cardiac chest pain, AE of any grade: 1 (9.1) n (%)
  Pain in extremity, AE of any grade: 1 (9.1) n (%)
  Peripheral sensory neuropathy, AE of any grade: 1 (9.1) n (%)
  Pleural effusion, AE of any grade: 2 (18.2) n (%)
  Pyrexia, AE of any grade: 0 (0.0) n (%)
  Treatment-emergent AE: 11 (100.0) n (%)
  Treatment-emergent AE: Grade 3 or higher: 9 (81.8) n (%)
  Treatment-emergent AE: Leading to death: 3 (27.3) n (%)
  Treatment-emergent AE: Leading to dose interruption: 8 (72.7) n (%)
  Treatment-emergent AE: Leading to dose modification: 8 (72.7) n (%)
  Treatment-emergent AE: Leading to dose reduction: 0 (0.0) n (%)
  Treatment-emergent AE: Leading to treatment discontinuation: 0 (0.0) n (%)
  Treatment-emergent AE: Serious: 9 (81.8) n (%)
  Treatment-related AE: 7 (63.6) n (%)
  Treatment-related AE: Grade 3 or higher: 1 (9.1) n (%)
  Treatment-related AE: Leading to death: 0 (0.0) n (%)
  Treatment-related AE: Leading to dose interruption: 2 (18.2) n (%)
  Treatment-related AE: Leading to dose modification: 2 (18.2) n (%)
  Treatment-related AE: Leading to dose reduction: 0 (0.0) n (%)
  Treatment-related AE: Leading to treatment discontinuation: 0 (0.0) n (%)
  Treatment-related AE: Serious: 1 (9.1) n (%)
  Upper respiratory tract infection, AE of any grade: 1 (9.1) n (%)
  Urinary tract infection, AE of any grade: 3 (27.3) n (%)
  Vomiting, AE of any grade: 4 (36.4) n (%)
80 mg BID
  Incidence of nausea: 80.0%
80 mg BID (n = 10)
  Abdominal pain, AE of any grade: 2 (20.0) n (%)
  Anaemia, AE of any grade: 4 (40.0) n (%)
